Here are results for ten compounds from patent US10344060B2 (priority 2013, dated 2019).

One experiment has as its target hNav1.5 (Homo sapiens, UniProt Q14524). The experiment can be described thus: cell-based. The note with it: Table 12; ratio of PX tonic IC50 values.
The next experiment has as its target hNav1.4 (Homo sapiens, UniProt P35499). The experiment can be described thus: cell-based. The experiment is classed as cell-based. The note with it: Table 12; ratio of PX tonic IC50 values.

Chain of hNav1.5 (Q14524 whole entry): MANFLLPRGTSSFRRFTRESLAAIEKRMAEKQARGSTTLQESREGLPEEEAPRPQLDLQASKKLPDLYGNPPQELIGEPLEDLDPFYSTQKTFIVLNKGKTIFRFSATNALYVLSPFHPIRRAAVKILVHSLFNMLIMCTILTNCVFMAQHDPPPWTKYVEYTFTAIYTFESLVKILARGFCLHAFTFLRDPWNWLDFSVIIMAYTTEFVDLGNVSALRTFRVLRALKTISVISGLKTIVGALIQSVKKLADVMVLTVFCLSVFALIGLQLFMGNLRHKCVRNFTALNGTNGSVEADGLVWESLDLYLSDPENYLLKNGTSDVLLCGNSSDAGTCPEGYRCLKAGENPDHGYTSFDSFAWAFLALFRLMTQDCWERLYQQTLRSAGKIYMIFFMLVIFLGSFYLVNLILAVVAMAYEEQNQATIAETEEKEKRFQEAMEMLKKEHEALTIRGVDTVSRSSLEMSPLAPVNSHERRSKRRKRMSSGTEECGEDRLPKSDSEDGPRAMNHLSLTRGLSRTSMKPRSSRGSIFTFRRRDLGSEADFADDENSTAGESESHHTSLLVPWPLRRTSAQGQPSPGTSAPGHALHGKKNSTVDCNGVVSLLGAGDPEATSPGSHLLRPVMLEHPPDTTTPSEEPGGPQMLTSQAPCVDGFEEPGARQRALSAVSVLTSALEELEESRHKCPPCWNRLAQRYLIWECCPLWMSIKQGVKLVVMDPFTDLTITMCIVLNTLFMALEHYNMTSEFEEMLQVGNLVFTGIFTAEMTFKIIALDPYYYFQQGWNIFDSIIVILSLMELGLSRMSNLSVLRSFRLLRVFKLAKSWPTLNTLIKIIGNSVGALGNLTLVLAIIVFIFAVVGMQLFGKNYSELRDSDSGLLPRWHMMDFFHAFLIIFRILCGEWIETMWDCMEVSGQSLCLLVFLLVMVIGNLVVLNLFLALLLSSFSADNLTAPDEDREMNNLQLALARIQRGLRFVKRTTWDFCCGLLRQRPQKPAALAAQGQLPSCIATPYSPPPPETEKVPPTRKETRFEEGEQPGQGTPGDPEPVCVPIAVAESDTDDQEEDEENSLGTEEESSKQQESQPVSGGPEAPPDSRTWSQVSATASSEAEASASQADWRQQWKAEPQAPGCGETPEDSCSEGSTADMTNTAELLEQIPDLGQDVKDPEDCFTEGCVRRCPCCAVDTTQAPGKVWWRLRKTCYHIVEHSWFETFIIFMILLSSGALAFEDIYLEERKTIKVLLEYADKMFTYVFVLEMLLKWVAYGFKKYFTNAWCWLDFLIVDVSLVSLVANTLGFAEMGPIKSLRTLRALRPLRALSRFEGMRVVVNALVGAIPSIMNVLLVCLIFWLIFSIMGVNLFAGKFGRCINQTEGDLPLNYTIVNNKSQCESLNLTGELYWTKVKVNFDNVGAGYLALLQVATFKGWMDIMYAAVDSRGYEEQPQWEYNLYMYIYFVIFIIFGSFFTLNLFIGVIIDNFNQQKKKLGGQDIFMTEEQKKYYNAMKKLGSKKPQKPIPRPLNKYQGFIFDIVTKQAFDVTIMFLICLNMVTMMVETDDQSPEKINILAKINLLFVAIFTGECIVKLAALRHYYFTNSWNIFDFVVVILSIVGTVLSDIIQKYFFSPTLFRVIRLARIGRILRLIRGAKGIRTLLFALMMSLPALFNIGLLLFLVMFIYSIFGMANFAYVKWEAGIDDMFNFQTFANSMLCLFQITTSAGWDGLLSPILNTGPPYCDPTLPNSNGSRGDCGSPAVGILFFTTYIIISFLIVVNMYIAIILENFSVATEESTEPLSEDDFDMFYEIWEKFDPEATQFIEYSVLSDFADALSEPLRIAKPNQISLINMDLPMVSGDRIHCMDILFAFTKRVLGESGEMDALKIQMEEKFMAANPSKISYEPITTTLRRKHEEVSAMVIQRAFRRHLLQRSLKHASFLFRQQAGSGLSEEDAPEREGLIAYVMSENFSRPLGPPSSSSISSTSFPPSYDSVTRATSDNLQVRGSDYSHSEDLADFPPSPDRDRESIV
Chain of hNav1.4 (P35499 whole entry): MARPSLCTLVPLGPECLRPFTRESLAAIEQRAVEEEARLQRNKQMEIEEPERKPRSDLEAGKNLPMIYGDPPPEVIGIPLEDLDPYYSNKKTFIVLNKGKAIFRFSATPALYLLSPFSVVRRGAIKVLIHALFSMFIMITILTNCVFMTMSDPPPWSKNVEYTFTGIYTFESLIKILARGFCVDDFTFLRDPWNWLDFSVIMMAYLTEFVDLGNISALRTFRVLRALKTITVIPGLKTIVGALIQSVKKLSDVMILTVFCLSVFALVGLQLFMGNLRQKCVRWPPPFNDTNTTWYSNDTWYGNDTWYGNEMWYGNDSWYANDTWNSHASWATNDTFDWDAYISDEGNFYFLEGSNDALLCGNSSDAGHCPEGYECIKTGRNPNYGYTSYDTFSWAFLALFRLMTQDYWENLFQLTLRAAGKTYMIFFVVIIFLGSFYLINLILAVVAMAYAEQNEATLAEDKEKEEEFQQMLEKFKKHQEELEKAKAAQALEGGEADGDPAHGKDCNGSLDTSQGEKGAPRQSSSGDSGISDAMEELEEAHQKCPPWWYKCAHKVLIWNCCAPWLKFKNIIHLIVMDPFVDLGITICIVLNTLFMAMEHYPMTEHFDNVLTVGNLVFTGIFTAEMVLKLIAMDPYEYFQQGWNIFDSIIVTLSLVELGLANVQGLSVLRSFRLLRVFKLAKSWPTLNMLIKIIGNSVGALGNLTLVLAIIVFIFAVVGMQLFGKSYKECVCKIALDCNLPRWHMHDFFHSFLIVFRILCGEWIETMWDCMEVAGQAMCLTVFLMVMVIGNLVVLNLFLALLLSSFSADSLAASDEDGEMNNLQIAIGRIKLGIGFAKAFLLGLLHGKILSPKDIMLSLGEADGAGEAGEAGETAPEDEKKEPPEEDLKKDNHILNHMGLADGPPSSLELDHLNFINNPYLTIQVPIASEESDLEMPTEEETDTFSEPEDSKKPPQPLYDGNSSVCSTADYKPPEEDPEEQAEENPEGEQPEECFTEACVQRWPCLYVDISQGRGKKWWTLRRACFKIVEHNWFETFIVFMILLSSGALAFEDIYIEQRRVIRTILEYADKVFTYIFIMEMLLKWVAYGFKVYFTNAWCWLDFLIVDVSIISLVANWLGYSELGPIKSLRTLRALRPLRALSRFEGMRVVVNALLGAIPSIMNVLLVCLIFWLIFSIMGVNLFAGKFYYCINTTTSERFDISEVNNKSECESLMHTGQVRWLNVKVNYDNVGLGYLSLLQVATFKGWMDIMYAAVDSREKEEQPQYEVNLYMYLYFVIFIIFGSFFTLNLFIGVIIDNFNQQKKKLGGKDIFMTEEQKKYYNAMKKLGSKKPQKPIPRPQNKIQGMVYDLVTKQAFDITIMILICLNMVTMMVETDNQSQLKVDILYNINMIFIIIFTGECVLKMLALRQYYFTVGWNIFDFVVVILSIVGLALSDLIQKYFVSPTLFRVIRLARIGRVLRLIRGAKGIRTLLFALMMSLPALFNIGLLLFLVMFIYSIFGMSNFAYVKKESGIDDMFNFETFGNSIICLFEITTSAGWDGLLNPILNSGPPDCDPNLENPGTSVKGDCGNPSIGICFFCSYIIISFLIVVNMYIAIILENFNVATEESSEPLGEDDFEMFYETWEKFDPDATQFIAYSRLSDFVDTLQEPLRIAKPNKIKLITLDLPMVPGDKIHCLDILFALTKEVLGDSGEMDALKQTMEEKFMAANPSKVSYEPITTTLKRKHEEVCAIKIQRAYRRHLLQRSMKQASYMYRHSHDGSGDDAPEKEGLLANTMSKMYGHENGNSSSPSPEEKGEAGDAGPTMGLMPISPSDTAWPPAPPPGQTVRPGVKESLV

Take `C#CC[C@H](N)C(=O)N[C@@H](Cc1ccc(O)cc1)C(=O)N[C@H]1CSSC[C@@H]2NC(=O)[C@@H]3CSSC[C@@H](C(=O)N[C@@H](CCCNC(=N)N)C(=O)N[C@@H](CCCCN)C(=O)N[C@H](C(=O)N[C@@H](Cc4c[nH]c5ccccc45)C(N)=O)[C@@H](C)CC)NC(=O)[C@H](Cc4c[nH]c5ccccc45)NC(=O)[C@H](CC(C)C)NC(=O)[C@H](CCCCN)NC(=O)[C@H](CSSC[C@H](NC(=O)[C@H]([C@@H](C)O)NC(=O)[C@H](Cc4c[nH]c5ccccc45)NC(=O)[C@H](CCC)NC(=O)[C@H](Cc4c[nH]c5ccccc45)NC(=O)[C@H](CCCCN)NC(=O)[C@H](CCC(N)=O)NC1=O)C(=O)N[C@@H](CC(=O)O)C(=O)N[C@@H](CO)C(=O)N[C@@H](CCCCN)C(=O)N[C@@H](CCCNC(=N)N)C(=O)N[C@@H](C)C(=O)N3)NC(=O)[C@H](CCC(=O)O)NC(=O)[C@H](CC(C)C)NC(=O)CNC(=O)[C@H](CCC(=O)O)NC2=O` [compound 300]: the Nav1.5/Nav1.7 at hNav1.5 came out at 6483. Also, at hNav1.4, the Nav1.4/Nav1.7 stood at 1183.
Regarding `CCCC[C@@H]1NC(=O)[C@H](Cc2c[nH]c3ccccc23)NC(=O)[C@H](CCCCN)NC(=O)[C@H](CCC(N)=O)NC(=O)[C@@H](NC(=O)[C@@H](N)CCCCN=[N+]=[N-])CSSC[C@@H]2NC(=O)[C@@H]3CSSC[C@@H](C(=O)N[C@@H](CCCNC(=N)N)C(=O)N[C@@H](CCCCN)C(=O)N[C@H](C(=O)N[C@@H](Cc4c[nH]c5ccccc45)C(N)=O)[C@@H](C)CC)NC(=O)[C@H](Cc4c[nH]c5ccccc45)NC(=O)[C@H](CC(C)C)NC(=O)[C@H](CCCCN)NC(=O)[C@H](CSSC[C@H](NC(=O)[C@H]([C@@H](C)O)NC(=O)[C@H](Cc4c[nH]c5ccccc45)NC1=O)C(=O)N[C@@H](CC(=O)O)C(=O)N[C@@H](CO)C(=O)N[C@@H](CCCCN)C(=O)N[C@@H](CCCNC(=N)N)C(=O)N[C@@H](C)C(=O)N3)NC(=O)[C@H](CCC(=O)O)NC(=O)[C@H](CC(C)C)NC(=O)CNC(=O)[C@H](CCC(=O)O)NC2=O` [compound 304], on hNav1.5, the Nav1.5/Nav1.7 was determined as 662. The Nav1.4/Nav1.7 at hNav1.4 was 449.
For the compound `CCCC[C@@H]1NC(=O)[C@H](Cc2c[nH]c3ccccc23)NC(=O)[C@H](CCCCN)NC(=O)[C@H](CCC(N)=O)NC(=O)[C@@H](NC(=O)[C@@H](N)Cc2ccc(O)cc2)CSSC[C@@H]2NC(=O)[C@@H]3CSSC[C@@H](C(=O)N[C@@H](CCCNC(=N)N)C(=O)N[C@@H](CCCCN)C(=O)N[C@H](C(=O)N[C@@H](Cc4c[nH]c5ccccc45)C(N)=O)[C@@H](C)CC)NC(=O)[C@H](Cc4c[nH]c5ccccc45)NC(=O)[C@H](CC(C)C)NC(=O)[C@H](CCCCN)NC(=O)[C@H](CSSC[C@H](NC(=O)[C@H]([C@@H](C)O)NC(=O)[C@H](Cc4c[nH]c5ccccc45)NC1=O)C(=O)N[C@@H](CC(=O)O)C(=O)N[C@@H](CCCCN=[N+]=[N-])C(=O)N[C@@H](CCCCN)C(=O)N[C@@H](CCCNC(=N)N)C(=O)N[C@@H](C)C(=O)N3)NC(=O)[C@H](CCC(=O)O)NC(=O)[C@H](CC(C)C)NC(=O)CNC(=O)[C@H](CCC(=O)O)NC2=O` [compound 305], at hNav1.5, the Nav1.5/Nav1.7 came out at 0. The Nav1.4/Nav1.7 at hNav1.4 amounted to 0.
`CCCC[C@@H]1NC(=O)[C@H](Cc2c[nH]c3ccccc23)NC(=O)[C@H](CCCCN)NC(=O)[C@H](CCC(N)=O)NC(=O)[C@@H](NC(=O)[C@@H](N)Cc2ccc(O)cc2)CSSC[C@@H]2NC(=O)[C@@H]3CSSC[C@@H](C(=O)N[C@@H](CCCNC(=N)N)C(=O)N[C@@H](CCCCN)C(=O)N[C@H](C(=O)N[C@@H](Cc4c[nH]c5ccccc45)C(N)=O)[C@@H](C)CC)NC(=O)[C@H](Cc4c[nH]c5ccccc45)NC(=O)[C@H](CC(C)C)NC(=O)[C@H](CCCCN)NC(=O)[C@H](CSSC[C@H](NC(=O)[C@H]([C@@H](C)O)NC(=O)[C@H](Cc4c[nH]c5ccccc45)NC1=O)C(=O)N[C@@H](CC(=O)O)C(=O)N[C@@H](CO)C(=O)N[C@@H](CCCCN)C(=O)N[C@@H](CCCNC(=N)N)C(=O)N[C@@H](CCCCN=[N+]=[N-])C(=O)N3)NC(=O)[C@H](CCC(=O)O)NC(=O)[C@H](CC(C)C)NC(=O)CNC(=O)[C@H](CCC(=O)O)NC2=O` [compound 306]: the Nav1.5/Nav1.7 at hNav1.5 amounted to 1712. For the same compound, the Nav1.4/Nav1.7 at hNav1.4 turned out to be 550.
For `CCCC[C@@H]1NC(=O)[C@H](Cc2c[nH]c3ccccc23)NC(=O)[C@H](CCCCN)NC(=O)[C@H](CCC(N)=O)NC(=O)[C@@H](NC(=O)[C@@H](N)Cc2ccc(O)cc2)CSSC[C@@H]2NC(=O)[C@@H]3CSSC[C@@H](C(=O)N[C@@H](CCCNC(=N)N)C(=O)N[C@@H](CCCCN)C(=O)N[C@H](C(=O)N[C@@H](Cc4c[nH]c5ccccc45)C(N)=O)[C@@H](C)CC)NC(=O)[C@H](Cc4c[nH]c5ccccc45)NC(=O)[C@H](CC(C)C)NC(=O)[C@H](CCCCN)NC(=O)[C@H](CSSC[C@H](NC(=O)[C@H]([C@@H](C)O)NC(=O)[C@H](Cc4c[nH]c5ccccc45)NC1=O)C(=O)N[C@@H](CC(=O)O)C(=O)N[C@@H](CO)C(=O)N[C@@H](CCCCN)C(=O)N[C@@H](CCCNC(=N)N)C(=O)N[C@@H](C)C(=O)N3)NC(=O)[C@H](CCC(=O)O)NC(=O)[C@H](CC(C)C)NC(=O)CNC(=O)[C@H](CCCCN=[N+]=[N-])NC2=O` [compound 307], in that order: 83 and 40.
Turning to `CCCC[C@@H]1NC(=O)[C@H](Cc2c[nH]c3ccccc23)NC(=O)[C@H](CCCCN)NC(=O)[C@H](CCC(N)=O)NC(=O)[C@@H](NC(=O)[C@H](Cc2ccc(O)cc2)NC(=O)[C@@H](N)CCN=[N+]=[N-])CSSC[C@@H]2NC(=O)[C@@H]3CSSC[C@@H](C(=O)N[C@@H](CCCNC(=N)N)C(=O)N[C@@H](CCCCN)C(=O)N[C@H](C(=O)N[C@@H](Cc4c[nH]c5ccccc45)C(N)=O)[C@@H](C)CC)NC(=O)[C@H](Cc4c[nH]c5ccccc45)NC(=O)[C@H](CC(C)C)NC(=O)[C@H](CCCCN)NC(=O)[C@H](CSSC[C@H](NC(=O)[C@H]([C@@H](C)O)NC(=O)[C@H](Cc4c[nH]c5ccccc45)NC1=O)C(=O)N[C@@H](CC(=O)O)C(=O)N[C@@H](CO)C(=O)N[C@@H](CCCCN)C(=O)N[C@@H](CCCNC(=N)N)C(=O)N[C@@H](C)C(=O)N3)NC(=O)[C@H](CCC(=O)O)NC(=O)[C@H](CC(C)C)NC(=O)CNC(=O)[C@H](CCC(=O)O)NC2=O` [compound 308], the Nav1.5/Nav1.7 on hNav1.5 was found to be 3351. Besides, the Nav1.4/Nav1.7 on hNav1.4 was determined as 1068.
For `CCCC[C@@H]1NC(=O)[C@H](Cc2c[nH]c3ccccc23)NC(=O)[C@H](CCCCN)NC(=O)[C@H](CCC(N)=O)NC(=O)[C@@H](NC(=O)[C@@H](N)CCN=[N+]=[N-])CSSC[C@@H]2NC(=O)[C@@H]3CSSC[C@@H](C(=O)N[C@@H](CCCNC(=N)N)C(=O)N[C@@H](CCCCN)C(=O)N[C@H](C(=O)N[C@@H](Cc4c[nH]c5ccccc45)C(N)=O)[C@@H](C)CC)NC(=O)[C@H](Cc4c[nH]c5ccccc45)NC(=O)[C@H](CC(C)C)NC(=O)[C@H](CCCCN)NC(=O)[C@H](CSSC[C@H](NC(=O)[C@H]([C@@H](C)O)NC(=O)[C@H](Cc4c[nH]c5ccccc45)NC1=O)C(=O)N[C@@H](CC(=O)O)C(=O)N[C@@H](CO)C(=O)N[C@@H](CCCCN)C(=O)N[C@@H](CCCNC(=N)N)C(=O)N[C@@H](C)C(=O)N3)NC(=O)[C@H](CCC(=O)O)NC(=O)[C@H](CC(C)C)NC(=O)CNC(=O)[C@H](CCC(=O)O)NC2=O` [compound 309], in that order: 634 and 239.
Regarding `C#CC[C@H](N)C(=O)N[C@@H](Cc1ccc(O)cc1)C(=O)N[C@H]1CSSC[C@@H]2NC(=O)[C@@H]3CSSC[C@@H](C(=O)N[C@@H](CCCNC(=N)N)C(=O)N[C@@H](CCCCN)C(=O)N[C@@H](Cc4ccc(O)cc4)C(=O)N[C@H](C(N)=O)[C@@H](C)CC)NC(=O)[C@H](Cc4c[nH]c5ccccc45)NC(=O)[C@H](CC(C)C)NC(=O)[C@H](CCCCN)NC(=O)[C@H](CSSC[C@H](NC(=O)[C@H]([C@@H](C)O)NC(=O)[C@H](Cc4c[nH]c5ccccc45)NC(=O)[C@H](CCCC)NC(=O)[C@H](Cc4c[nH]c5ccccc45)NC(=O)[C@H](CCCCN)NC(=O)[C@H](CCC(N)=O)NC1=O)C(=O)N[C@@H](CC(=O)O)C(=O)N[C@@H](CO)C(=O)N[C@@H](CCCCN)C(=O)N[C@@H](CCCNC(=N)N)C(=O)N[C@@H](C)C(=O)N3)NC(=O)[C@H](CCC(=O)O)NC(=O)[C@H](CC(C)C)NC(=O)CNC(=O)[C@H](CCC(=O)O)NC2=O` [compound 313], the Nav1.5/Nav1.7 at hNav1.5 is on record as 10226. Further, on hNav1.4, the Nav1.4/Nav1.7 stood at 2261.
For `C#CC[C@@H]1NC(=O)[C@H](CC(=O)O)NC(=O)[C@@H]2CSSC[C@@H]3NC(=O)[C@H](CCC(=O)O)NC(=O)[C@H](CC(C)C)NC(=O)CNC(=O)[C@H](CCC(=O)O)NC(=O)[C@H](CSSC[C@H](NC(=O)[C@@H](N)Cc4ccc(O)cc4)C(=O)N[C@@H](CCC(N)=O)C(=O)N[C@@H](CCCCN)C(=O)N[C@@H](Cc4c[nH]c5ccccc45)C(=O)N[C@@H](CCCC)C(=O)N[C@@H](Cc4c[nH]c5ccccc45)C(=O)N[C@@H]([C@@H](C)O)C(=O)N2)NC(=O)[C@H](CSSC[C@@H](C(=O)N[C@@H](CCCNC(=N)N)C(=O)N[C@@H](CCCCN)C(=O)N[C@@H](Cc2ccc(O)cc2)C(=O)N[C@H](C(N)=O)[C@@H](C)CC)NC(=O)[C@H](Cc2c[nH]c4ccccc24)NC(=O)[C@H](CC(C)C)NC(=O)[C@H](CCCCN)NC3=O)NC(=O)[C@H](C)NC(=O)[C@H](CCCNC(=N)N)NC(=O)[C@H](CCCCN)NC1=O` [compound 315], in that order: 1914 and 643.
For `C#CC[C@@H]1NC(=O)[C@H](CCCNC(=N)N)NC(=O)[C@H](CCCCN)NC(=O)[C@H](CO)NC(=O)[C@H](CC(=O)O)NC(=O)[C@@H]2CSSC[C@@H]3NC(=O)[C@H](CCC(=O)O)NC(=O)[C@H](CC(C)C)NC(=O)CNC(=O)[C@H](CCC(=O)O)NC(=O)[C@H](CSSC[C@H](NC(=O)[C@@H](N)Cc4ccc(O)cc4)C(=O)N[C@@H](CCC(N)=O)C(=O)N[C@@H](CCCCN)C(=O)N[C@@H](Cc4c[nH]c5ccccc45)C(=O)N[C@@H](CCCC)C(=O)N[C@@H](Cc4c[nH]c5ccccc45)C(=O)N[C@@H]([C@@H](C)O)C(=O)N2)NC(=O)[C@H](CSSC[C@@H](C(=O)N[C@@H](CCCNC(=N)N)C(=O)N[C@@H](CCCCN)C(=O)N[C@@H](Cc2ccc(O)cc2)C(=O)N[C@H](C(N)=O)[C@@H](C)CC)NC(=O)[C@H](Cc2c[nH]c4ccccc24)NC(=O)[C@H](CC(C)C)NC(=O)[C@H](CCCCN)NC3=O)NC1=O` [compound 316], on hNav1.5, the Nav1.5/Nav1.7 is recorded as 2099. In addition, the Nav1.4/Nav1.7 at hNav1.4 was determined as 402.
